Several values for one entry are separate records, joined by “and”; a condition that tells them apart may be missing. Identical values can stand only once. Like-named read-outs stand apart in the source and are kept apart here.
Tests used:
[1] = tested on: double co-culture BBB model (hCMEC/D3 and U251 cells); test: In vitro BBB permeability study (Papp), double co-culture with U251 cells (h+U); format: in vitro ADME, Homo sapiens; conditions: group h+U, Figure 1D/1E; single biological replicate; listed as NaF
[2] = as above; format: in vitro ADME, Homo sapiens; conditions: human, group h+U, Figure 1D/1E
[3] = tested on: triple co-culture BBB model (hCMEC/D3, U251 and SH-SY5Y cells); test: In vitro BBB permeability study (Papp), triple co-culture BBB model
[4] = as above; conditions: human
[5] = tested on: hCMEC/D3 mono-culture BBB model; test: In vitro BBB permeability study (Papp), hCMEC/D3 mono-culture BBB model
[6] = as above; conditions: human
U251 cells monolayer = test: Permeability (Papp) across U251 mono-culture model; format: in vitro ADME, Homo sapiens; conditions: group U251 mono-culture, Figure 1F; single replicate
[7] = Permeability (Papp) across U251 mono-culture model; format: in vitro ADME, Homo sapiens; conditions: human, group U251 mono-culture, Figure 1F
[8] = tested on: double co-culture BBB model (hCMEC/D3 and SH-SY5Y cells); test: In vitro BBB permeability study (Papp), double co-culture with SH-SY5Y cells (h+S); format: in vitro ADME, Homo sapiens; conditions: group h+S, Figure 1D/1E; single biological replicate; listed as NaF
[9] = as above; format: in vitro ADME, Homo sapiens; conditions: human, group h+S, Figure 1D/1E
[10] = Permeability (Papp) across the blank inserts; format: in vitro ADME; conditions: blank inserts (no cells), Figure 1F; for Papp at 30 min: not told
Protocol: Therefore, the subsequent experiments were all completed on day 6. The culture medium was removed from the apical and basolateral sides of the inserts and washed twice with preheated Hank’s balanced salt solution (HBSS). Fresh HBSS was then added to both the apical and basolateral chambers. […] Next, 200 μl aliquots were collected from the basolateral chamber after 30 min of incubation at 37°C. The concentrations of the tested agents in the basolateral chamber were measured.
The apparent permeability coefficient (Papp, cm/s) values of the tested agents across the in vitro BBB model were calculated using the equation ([Tavelin et al., 2002]):(1) Papp=(Q/1800)/(S×C0)
where S is the surface area of the insert membrane (0.33 cm^2 for 6.5 mm inserts, 4.46 cm^2 for 24 mm inserts), Q is the transported amount of the tested agents transported from the donor chamber to the receiver chamber for 30 min (1800 s), and C0 is the initial concentration of the tested agents in the donor chamber.

[11] = BBB permeability in brain-specific Gdnf knockdown mice (brain distribution of fluorescein and FITC-Dex); conditions: Gdnf silencing (shGdnf) vs shNC mice; i.v., 30 min
[12] = mean of four replicates, read-out: Papp Mean
[13] = single biological replicate, read-out: Papp
[14] = single replicate, read-out: Papp

Papp A→B [1]: 30.2 ×10⁻⁶ cm/s and 29.6 ×10⁻⁶ cm/s and 28.1 ×10⁻⁶ cm/s | Papp A→B at 30 min [2, 12]: 29.1 ×10⁻⁶ cm/s | Papp A→B at 30 min [2, 13]: 28.2 ×10⁻⁶ cm/s | Papp A→B ([3]; read-out: Papp(cm/s), group h+S+U, Figure 1D/1E, single biological replicate, listed as NaF): 26.4 ×10⁻⁶ cm/s and 23.5 ×10⁻⁶ cm/s and 23.6 ×10⁻⁶ cm/s | Papp A→B ([3]; read-out: Papp, Triple group, single replicates, Figure 2R): 24.7 ×10⁻⁶ cm/s and 24.9 ×10⁻⁶ cm/s and 25 ×10⁻⁶ cm/s | Papp A→B ([3]; read-out: Papp, Triple group, single replicates, Figure 2T): 20.2 ×10⁻⁶ cm/s and 20.5 ×10⁻⁶ cm/s and 19.8 ×10⁻⁶ cm/s | Papp A→B ([3]; read-out: Papp, Triple+PP2 group, single replicates, Figure 2T): 26.4 ×10⁻⁶ cm/s | Papp A→B ([3]; read-out: Papp, Triple+SPP group, single replicates, Figure 2R): 29.1 ×10⁻⁶ cm/s and 30.2 ×10⁻⁶ cm/s | Papp A→B at 30 min ([4]; Papp Mean, Triple group, mean of 4, Figure 2R): 25 ×10⁻⁶ cm/s | Papp A→B at 30 min ([4]; Papp Mean, Triple group, mean of 4, Figure 2T): 20.5 ×10⁻⁶ cm/s | Papp A→B at 30 min ([4]; Papp Mean, Triple+PP2 group, mean of 4, Figure 2T): 27.5 ×10⁻⁶ cm/s | Papp A→B at 30 min ([4]; Papp Mean, Triple+SPP group, mean of 4, Figure 2R): 30 ×10⁻⁶ cm/s | Papp A→B at 30 min ([4]; Papp Mean, group h+S+U, Figure 1D/1E, mean of four replicates): 24.9 ×10⁻⁶ cm/s | Papp A→B at 30 min ([4]; Papp(cm/s), group h+S+U, Figure 1D/1E, single biological replicate): 26.1 ×10⁻⁶ cm/s | Papp A→B at 30 min ([4]; Papp, Triple group, single replicates, Figure 2R): 25.3 ×10⁻⁶ cm/s | Papp A→B at 30 min ([4]; Papp, Triple group, single replicates, Figure 2T): 21.5 ×10⁻⁶ cm/s | Papp A→B at 30 min ([4]; Papp, Triple+PP2 group, single replicates, Figure 2T): 28.2 ×10⁻⁶ cm/s | Papp A→B at 30 min ([4]; Papp, Triple+SPP group, single replicates, Figure 2R): 30.6 ×10⁻⁶ cm/s | Papp A→B ([5]; read-out: Papp(cm/s), Figure 2N, group GDNF+SPP, individual replicates): 22 ×10⁻⁶ cm/s and 26.7 ×10⁻⁶ cm/s | Papp A→B ([5]; read-out: Papp(cm/s), Figure 2N, group GDNF, individual replicates): 17.7 ×10⁻⁶ cm/s and 20.6 ×10⁻⁶ cm/s and 18.3 ×10⁻⁶ cm/s | Papp A→B ([5]; read-out: Papp(cm/s), Figure 2N, group Mono, individual replicates): 24.3 ×10⁻⁶ cm/s and 25.1 ×10⁻⁶ cm/s and 23.7 ×10⁻⁶ cm/s | Papp A→B ([5]; read-out: Papp(cm/s), Figure 2P, group GDNF+PP2, individual replicates): 28.3 ×10⁻⁶ cm/s | Papp A→B ([5]; read-out: Papp(cm/s), Figure 2P, group GDNF, individual replicates): 23.3 ×10⁻⁶ cm/s (2×) and 23.8 ×10⁻⁶ cm/s | Papp A→B ([5]; read-out: Papp(cm/s), Figure 2P, group Mono, individual replicates): 30.5 ×10⁻⁶ cm/s and 31.5 ×10⁻⁶ cm/s and 30.3 ×10⁻⁶ cm/s | Papp A→B ([5]; read-out: Papp(cm/s), group h, Figure 1D/1E, single biological replicate, listed as NaF): 32 ×10⁻⁶ cm/s and 32.7 ×10⁻⁶ cm/s and 32.5 ×10⁻⁶ cm/s | Papp A→B ([5]; read-out: Papp(cm/s), group hCEMC/D3 mono-culture, Figure 1F, single replicate): 35.9 ×10⁻⁶ cm/s and 34.8 ×10⁻⁶ cm/s and 36 ×10⁻⁶ cm/s | Papp A→B ([5]; read-out: Papp, Mono group, single replicates, Figure 2R): 31.7 ×10⁻⁶ cm/s and 33.3 ×10⁻⁶ cm/s and 31.4 ×10⁻⁶ cm/s | Papp A→B ([5]; read-out: Papp, Mono group, single replicates, Figure 2T): 29.5 ×10⁻⁶ cm/s and 30.3 ×10⁻⁶ cm/s | Papp A→B at 30 min ([6]; Papp Mean, Mono group, mean of 4, Figure 2R): 31.8 ×10⁻⁶ cm/s | Papp A→B at 30 min ([6]; Papp Mean, Mono group, mean of 4, Figure 2T): 30.4 ×10⁻⁶ cm/s | Papp A→B at 30 min ([6]; Papp Mean, group h, Figure 1D/1E, mean of four replicates): 32.2 ×10⁻⁶ cm/s | Papp A→B at 30 min ([6]; Papp Mean, group hCEMC/D3 mono-culture, Figure 1F, mean of four replicates): 35.7 ×10⁻⁶ cm/s | Papp A→B at 30 min ([6]; Papp(cm/s) Mean, Figure 2N, group GDNF+SPP, group mean): 24.5 ×10⁻⁶ cm/s | Papp A→B at 30 min ([6]; Papp(cm/s) Mean, Figure 2N, group GDNF, group mean): 19 ×10⁻⁶ cm/s | Papp A→B at 30 min ([6]; Papp(cm/s) Mean, Figure 2N, group Mono, group mean): 23.8 ×10⁻⁶ cm/s | Papp A→B at 30 min ([6]; Papp(cm/s) Mean, Figure 2P, group GDNF+PP2, group mean): 28.2 ×10⁻⁶ cm/s | Papp A→B at 30 min ([6]; Papp(cm/s) Mean, Figure 2P, group GDNF, group mean): 23.5 ×10⁻⁶ cm/s | Papp A→B at 30 min ([6]; Papp(cm/s) Mean, Figure 2P, group Mono, group mean): 30.8 ×10⁻⁶ cm/s | Papp A→B at 30 min ([6]; Papp(cm/s), Figure 2N, group GDNF+SPP, individual replicates): 26.5 ×10⁻⁶ cm/s | Papp A→B at 30 min ([6]; Papp(cm/s), Figure 2N, group GDNF, individual replicates): 19.4 ×10⁻⁶ cm/s | Papp A→B at 30 min ([6]; Papp(cm/s), Figure 2N, group Mono, individual replicates): 21.9 ×10⁻⁶ cm/s | Papp A→B at 30 min ([6]; Papp(cm/s), Figure 2P, group GDNF+PP2, individual replicates): 27.5 ×10⁻⁶ cm/s | Papp A→B at 30 min ([6]; Papp(cm/s), Figure 2P, group GDNF, individual replicates): 23.6 ×10⁻⁶ cm/s | Papp A→B at 30 min ([6]; Papp(cm/s), Figure 2P, group Mono, individual replicates): 31 ×10⁻⁶ cm/s | Papp A→B at 30 min ([6]; Papp(cm/s), group h, Figure 1D/1E, single biological replicate): 31.7 ×10⁻⁶ cm/s | Papp A→B at 30 min ([6]; Papp(cm/s), group hCEMC/D3 mono-culture, Figure 1F, single replicate): 36.2 ×10⁻⁶ cm/s | Papp A→B at 30 min ([6]; Papp, Mono group, single replicates, Figure 2R): 30.7 ×10⁻⁶ cm/s | Papp A→B at 30 min ([6]; Papp, Mono group, single replicates, Figure 2T): 30.8 ×10⁻⁶ cm/s | Papp A→B (U251 cells monolayer): 30.6 ×10⁻⁶ cm/s and 31.9 ×10⁻⁶ cm/s and 30.2 ×10⁻⁶ cm/s | Papp A→B at 30 min [7, 12]: 30.6 ×10⁻⁶ cm/s | Papp A→B at 30 min [7, 14]: 29.5 ×10⁻⁶ cm/s | Papp A→B [8]: 29.1 ×10⁻⁶ cm/s and 23.2 ×10⁻⁶ cm/s and 29.5 ×10⁻⁶ cm/s | Papp A→B at 30 min [9, 12]: 27.8 ×10⁻⁶ cm/s | Papp A→B at 30 min [9, 13]: 29.4 ×10⁻⁶ cm/s | Papp at 30 min [10, 12]: 71.6 ×10⁻⁶ cm/s | Papp at 30 min [10, 14]: 68.7 ×10⁻⁶ cm/s | brain-to-plasma concentration ratios [11]: notable increases
SMILES: O=C1OC2(c3ccc(O)cc3Oc3cc(O)ccc32)c2ccccc21 [fluorescein, fluorescein sodium]
Papp ([10]; single replicate): 72.71 ×10⁻⁶ cm/s and 72.14 ×10⁻⁶ cm/s and 72.59 ×10⁻⁶ cm/s

Reference: PMC11524583, “Neurons enhance blood–brain barrier function via upregulating claudin-5 and VE-cadherin expression due to glial cell line-derived neurotrophic factor secretion” (eLife, 2024)
